Reference: ChEMBL document CHEMBL1157798, “Iminochromene inhibitors of dynamins I and II GTPase activity and endocytosis” (J Med Chem, 2010)
The source made the active and inactive calls. The rule behind the calls is not given here.

Tests used:
[1] = Inhibition of sheep brain dynamin 1 by malachite green GTPase assay; set-up: species or system Ovis aries
Dynamin-1 = molecular target: T1, Dynamin-1 (Rattus norvegicus, UniProt P21575); experiment: Inhibition of dynamin 1-mediated synaptic vesicle endocytosis in Sprague-Dawley rat synaptosomes assessed as uptake of FM 4-64 dye after 30 mins by automated acquisition and analysis system; format: subcellular, Brain
T1 sequence (P21575 whole entry): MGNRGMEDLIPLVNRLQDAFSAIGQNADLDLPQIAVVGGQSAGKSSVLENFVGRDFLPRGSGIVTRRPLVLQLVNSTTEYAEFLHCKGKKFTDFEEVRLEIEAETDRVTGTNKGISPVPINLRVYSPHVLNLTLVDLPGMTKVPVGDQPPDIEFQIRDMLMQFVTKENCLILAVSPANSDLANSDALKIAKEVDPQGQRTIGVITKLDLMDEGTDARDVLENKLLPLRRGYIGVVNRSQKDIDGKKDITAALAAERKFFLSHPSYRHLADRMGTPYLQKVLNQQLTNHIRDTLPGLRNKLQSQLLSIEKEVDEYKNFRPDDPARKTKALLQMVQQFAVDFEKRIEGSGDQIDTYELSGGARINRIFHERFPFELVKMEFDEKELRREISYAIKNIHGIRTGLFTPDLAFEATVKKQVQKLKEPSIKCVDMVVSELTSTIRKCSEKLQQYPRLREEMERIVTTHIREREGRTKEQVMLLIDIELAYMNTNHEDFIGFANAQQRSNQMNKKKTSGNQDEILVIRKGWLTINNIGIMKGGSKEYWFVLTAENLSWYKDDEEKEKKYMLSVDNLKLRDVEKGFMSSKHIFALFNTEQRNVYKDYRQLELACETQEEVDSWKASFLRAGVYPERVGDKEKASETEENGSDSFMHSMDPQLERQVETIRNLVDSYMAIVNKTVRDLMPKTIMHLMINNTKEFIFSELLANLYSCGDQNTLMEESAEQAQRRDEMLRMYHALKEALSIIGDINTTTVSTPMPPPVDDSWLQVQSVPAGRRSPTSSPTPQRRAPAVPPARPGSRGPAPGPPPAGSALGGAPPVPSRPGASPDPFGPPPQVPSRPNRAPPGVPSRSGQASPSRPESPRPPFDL

U2OS = experiment: Cytotoxicity against human U2OS cells assessed as change in cell morphology after 30 mins; format: cell-based; settings: 0.5 h
Ovis aries [2] = species: Ovis aries; experiment: Inhibition of sheep brain dynamin 1 at 100 uM by malachite green GTPase assay
Ovis aries [3] = species: Ovis aries; experiment: Inhibition of sheep brain dynamin 1 at 300 uM by malachite green GTPase assay

| Compound | IC50 [1] | inhibition (Ovis aries [2]) | other results |
| --- | --- | --- | --- |
| N=c1oc2c(O)c(O)ccc2cc1C(=O)NCCCNC(=O)c1cc2ccc(O)c(O)c2oc1=N | 0.45 µM | – | IC50 (Dynamin-1; read-out: IC50): 99.5 µM; Activity (U2OS): Non-toxic |
| COc1ccc(/C=C(\C#N)C(=O)NCCCNC(=O)/C(C#N)=C/c2ccc(O)c(O)c2)cc1OC | 44 µM | – | – |
| N=c1oc2cc(O)ccc2cc1C(=O)NCCCCCNC(=O)c1cc2ccc(O)cc2oc1=N | – | < 50% | – |
| N=c1oc2c(O)c(O)ccc2cc1C(=O)NCCCCNC(=O)c1cc2ccc(O)c(O)c2oc1=N | 4.3 µM | – | – |
| N=c1oc2c(O)cccc2cc1C(=O)NCCNC(=O)c1cc2cccc(O)c2oc1=N | – | < 50% | – |
| N=c1oc2cc(O)c(O)cc2cc1C(=O)NCCNC(=O)c1cc2cc(O)c(O)cc2oc1=N | 6 µM | – | – |
| N=c1oc2c(O)cccc2cc1C(=O)NCCCNC(=O)c1cc2cccc(O)c2oc1=N | 36.6 µM | – | IC50 (Dynamin-1): Not Active; Activity (U2OS): Non-toxic |
| N=c1oc2cc(O)ccc2cc1C(=O)NCCCCCCNC(=O)c1cc2ccc(O)cc2oc1=N | – | < 50% | – |
| N=c1oc2ccccc2cc1C(=O)NCCCCCCNC(=O)c1cc2ccccc2oc1=N | > 300 µM | < 50% | – |
| N=c1oc2c(O)cccc2cc1C(=O)NCCCCNC(=O)c1cc2cccc(O)c2oc1=N | – | < 50% | – |
| N=c1oc2c(O)c(O)ccc2cc1C(=O)NCCCCCCNC(=O)c1cc2ccc(O)c(O)c2oc1=N | 70 µM | – | – |
| N=c1oc2cc(O)c(O)cc2cc1C(=O)NCCCCCCNC(=O)c1cc2cc(O)c(O)cc2oc1=N | 82 µM | – | – |
| N=c1oc2cc(O)c(O)cc2cc1C(=O)NCCCNC(=O)c1cc2cc(O)c(O)cc2oc1=N | 0.26 µM | – | IC50 (Dynamin-1; read-out: IC50): 40.4 µM; Activity (U2OS): Non-toxic |
| N#C/C(=C\c1ccc(C2(C(F)(F)F)N=N2)cc1)C(=O)NCCCNC(=O)/C(C#N)=C/c1ccc(O)c(O)c1 | 36 µM | – | – |
| N=c1oc2cc(O)c(O)cc2cc1C(=O)NCCCCCNC(=O)c1cc2cc(O)c(O)cc2oc1=N | 17 µM | – | – |
| N#C/C(=C\c1ccc(N=[N+]=[N-])cc1)C(=O)NCCCNC(=O)/C(C#N)=C/c1ccc(O)c(O)c1 | 6.4 µM | – | – |

| Compound | IC50 [1] | inhibition (Ovis aries [2]) | other results |
| --- | --- | --- | --- |
| N=c1oc2ccccc2cc1C(=O)NCCCNC(=O)c1cc2ccccc2oc1=N | > 300 µM | < 50% | – |
| N=c1oc2cc(O)ccc2cc1C(=O)NCCNC(=O)c1cc2ccc(O)cc2oc1=N | 100 µM | – | inhibition (Ovis aries [3]): inactive |
| N#C/C(=C\c1ccccc1)C(=O)NCCCNC(=O)/C(C#N)=C/c1ccc(O)c(O)c1 | 146 µM | – | – |
| N=c1oc2c(O)c(O)ccc2cc1C(=O)NCCCCCNC(=O)c1cc2ccc(O)c(O)c2oc1=N | 19 µM | – | – |
| N=c1oc2ccccc2cc1C(=O)NCCCCCNC(=O)c1cc2ccccc2oc1=N | > 300 µM | < 50% | – |
| N=c1oc2cc(O)c(O)cc2cc1C(=O)NCCCCNC(=O)c1cc2cc(O)c(O)cc2oc1=N | 3.2 µM | – | – |
| N=c1oc2c(O)cccc2cc1C(=O)NCCCCCNC(=O)c1cc2cccc(O)c2oc1=N | – | < 50% | – |
| N=c1oc2cc(O)ccc2cc1C(=O)NCCCNC(=O)c1cc2ccc(O)cc2oc1=N | 17.3 µM | – | IC50 (Dynamin-1; read-out: IC50): 66.1 µM |
| N=c1oc2ccccc2cc1C(=O)NCCNC(=O)c1cc2ccccc2oc1=N | > 300 µM | < 50% | – |
| N#C/C(=C\c1ccc(O)c(O)c1)C(=O)NCCCNC(=O)/C(C#N)=C/c1ccc(O)c(O)c1 | 1.7 µM | – | – |
| N=c1oc2ccccc2cc1C(=O)NCCCCNC(=O)c1cc2ccccc2oc1=N | > 300 µM | < 50% | – |
| N=c1oc2cc(O)ccc2cc1C(=O)NCCCCNC(=O)c1cc2ccc(O)cc2oc1=N | – | < 50% | – |
| N=c1oc2c(O)c(O)ccc2cc1C(=O)NCCNC(=O)c1cc2ccc(O)c(O)c2oc1=N | 0.33 µM | – | IC50 (Dynamin-1): Not Active |
| N=c1oc2c(O)cccc2cc1C(=O)NCCCCCCNC(=O)c1cc2cccc(O)c2oc1=N | – | < 50% | – |
| N#C/C(=C\c1ccc(O)cc1)C(=O)NCCCNC(=O)/C(C#N)=C/c1ccc(O)c(O)c1 | 51 µM | – | – |
